Measurements taken from PubChem BioAssay (NCI).
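In this assay, cells in 96-well plates receive the compound at five concentrations for 48 hours. Endpoints are linearly interpolated between the surrounding concentrations. GI50: concentration for 50% inhibition of growth. The concentration for full growth arrest is given as TGI.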

Columns and labels:
SR leukemia = experiment: growth of human tumour cells (NCI), 48 h
TK-10 renal = experiment: growth of human tumour cells (NCI), 48 h

**Q.** How did the GI50 (SR leukemia) turn out when `N#C[S-].[La+3].c1ccc(-c2ccccn2)nc1.c1ccc(-c2ccccn2)nc1.c1ccc(-c2ccccn2)nc1` was run?
**A.** 34.2 µM

**Q.** And the TGI (SR leukemia)?
**A.** > 100 µM

**Q.** What about the GI50 (TK-10 renal) of the same compound?
**A.** 15.7 µM

**Q.** And the TGI (TK-10 renal)?
**A.** > 100 µM
